From ChEMBL document CHEMBL6103579, “Antiproliferative activity of selenium-enriched coumarin derivatives on the SK-N-SH neuroblastoma cell line: Mechanistic insights” (Eur J Med Chem, 2025)
Active and inactive are the calls of the source. No cut-off for these calls is given here.

Key:
[1] = Antiproliferative activity against human Embryonic lung cell assessed as inhibition of cell growth incubated for 60 hrs by CCK-8 method; assay type: toxicity, cell-based
Neuroblastoma cell = assay: Antiproliferative activity against human Neuroblastoma cell assessed as inhibition of cell growth incubated for 60 hrs by CCK-8 method; assay type: functional, cell-based

Q: For `COc1ccc(C2CC(c3ccc(F)cc3)=NN2C(=O)c2cc3ccc(OCCC[Se]C#N)cc3oc2=O)cc1` (configuration not stated), which Activity [1] is on record?
A: Non-toxic

Q: And the Activity (Neuroblastoma cell)?
A: Active
